Experimental data from ChEMBL document CHEMBL1201862, “PubChem BioAssay data set” (2004).
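Dose response: 5 concentrations. Exposure: 48 h. Format: 96-well plates. Endpoint: linear interpolation; highest concentration if not reached. GI50: concentration for 50% inhibition of growth.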 Calls of active or inactive are those of the source. Cut-off read from the data, not from the text of the source: active = GI50 up to about 1.1 µM and inactive = higher.

Columns and labels:
Test in all cases: NCI tumour cell line growth inhibition, 48 h
[1] = system: A549
[2] = system: K562
[3] = system: HT-29
[4] = system: SF-539
[5] = system: Malme-3M
[6] = system: HCC 2998
[7] = system: LOX IMVI
[8] = system: SK-OV-3
[9] = system: SK-MEL-2
[10] = system: OVCAR-8
[11] = system: SK-MEL-28
[12] = system: SF-268
[13] = system: NCI-H226
[14] = system: HCT-15
[15] = system: SK-MEL-5
[16] = system: HOP-62
[17] = system: TK-10
[18] = system: OVCAR-5
[19] = system: A498

Row | Structure (SMILES) | GI50 [1] | GI50 [2] | GI50 [3] | GI50 [4] | GI50 [5] | GI50 [6] | GI50 [7] | GI50 [8] | GI50 [9] | GI50 [10] | GI50 [11] | GI50 [12] | GI50 [13] | GI50 [14] [µM] | GI50 [15] | GI50 [16] | GI50 [17] | GI50 [18] | GI50 [19]
1 | COC(=O)[C@@]12CCCC(=O)[C@@H]1[C@H]1CCCC[C@H]12 | > 100 µM (inactive) | 35.8 µM (inactive) | > 100 µM (inactive) | > 100 µM (inactive) | > 100 µM (inactive) | > 100 µM (inactive) | > 100 µM (inactive) | > 100 µM (inactive) | > 100 µM (inactive) | > 100 µM (inactive) | > 100 µM (inactive) | > 100 µM (inactive) | > 100 µM (inactive) | > 100 | > 100 µM (inactive) | > 100 µM (inactive) | > 100 µM (inactive) | > 100 µM (inactive) | 
2 | O=C(Cn1cc(-c2ccccc2)nn1)NC1CCCCC1 | > 100 µM (inactive) | > 100 µM (inactive) | > 100 µM (inactive) | > 100 µM (inactive) | > 100 µM (inactive) | 54.5 µM (inactive) | > 100 µM (inactive) |  | > 100 µM (inactive) | > 100 µM (inactive) | > 100 µM (inactive) | > 100 µM (inactive) | > 100 µM (inactive) | > 100 | > 100 µM (inactive) | > 100 µM (inactive) | > 100 µM (inactive) | > 100 µM (inactive) | 
3 | O=C1OCN(c2ccccc2)C12CCN(Cc1ccccc1)CC2 | 41.2 µM (inactive) | 5.35 µM (inactive) | 16.4 µM (inactive) | 20.8 µM (inactive) | 18.1 µM (inactive) | 6.62 µM (inactive) | 14.6 µM (inactive) | 74.6 µM (inactive) | 25.8 µM (inactive) | 39.4 µM (inactive) | 19.3 µM (inactive) | 43 µM (inactive) | > 100 µM (inactive) | 33.7 | 19.5 µM (inactive) | 49.3 µM (inactive) | 32.8 µM (inactive) | > 100 µM (inactive) | 
4 | O=c1[nH]c(Nc2nc3ccccc3[nH]2)nc(O)c1Cc1ccccc1 | > 100 µM (inactive) | > 100 µM (inactive) | > 100 µM (inactive) | > 100 µM (inactive) | > 100 µM (inactive) |  |  |  | > 100 µM (inactive) | > 100 µM (inactive) | > 100 µM (inactive) | > 100 µM (inactive) | > 100 µM (inactive) | > 100 | > 100 µM (inactive) |  | > 100 µM (inactive) |  | > 100 µM (inactive)
5 | Cc1cccc(C)c1NC(=O)C(=O)C(c1ccccc1Cl)S(=O)(=O)Cc1ccccc1Cl (stereo unspecified) | > 100 µM (inactive) | > 100 µM (inactive) | > 100 µM (inactive) | 16 µM (inactive) |  | > 100 µM (inactive) | > 100 µM (inactive) | > 29.4 µM (inactive) | > 83.8 µM (inactive) | > 37.8 µM (inactive) | > 100 µM (inactive) | 22.9 µM (inactive) | > 100 µM (inactive) | > 100 | > 100 µM (inactive) | 18 µM (inactive) | > 61.2 µM (inactive) | > 100 µM (inactive) | 
6 | CC(=O)Nc1ccc(N2C(=O)CS(=O)(=O)C2c2cccc(Oc3ccccc3)c2)cc1 (stereo unspecified) | 20 µM (inactive) | 18.8 µM (inactive) | 19.1 µM (inactive) | 19.5 µM (inactive) | 20.4 µM (inactive) |  | 15.7 µM (inactive) | 27.4 µM (inactive) | 19.2 µM (inactive) | 16.7 µM (inactive) | 21.9 µM (inactive) | 20.2 µM (inactive) | 17.2 µM (inactive) | 17.3 | 14.7 µM (inactive) | 19.3 µM (inactive) | 20.4 µM (inactive) | 17.6 µM (inactive) | 
7 | COc1cc2c(cc1C1=NC(C)(C)CO1)OCO2 | > 100 µM (inactive) | > 100 µM (inactive) | > 100 µM (inactive) | > 100 µM (inactive) | > 100 µM (inactive) |  |  | > 100 µM (inactive) | > 100 µM (inactive) | > 100 µM (inactive) | > 100 µM (inactive) | > 100 µM (inactive) | > 100 µM (inactive) | > 100 | > 100 µM (inactive) | > 100 µM (inactive) | > 100 µM (inactive) |  | 
8 | N=C(N)N/N=C/c1c(-c2ccccc2[N+](=O)[O-])nc2sccn12 | 34.1 µM (inactive) | 14.1 µM (inactive) | 27.7 µM (inactive) | 19.2 µM (inactive) | 15.7 µM (inactive) |  | 19.9 µM (inactive) | 42.9 µM (inactive) | 15.1 µM (inactive) | 32.2 µM (inactive) | 30.8 µM (inactive) | 28.8 µM (inactive) | 17.4 µM (inactive) | > 100 | 16.9 µM (inactive) | 25.7 µM (inactive) | 23.6 µM (inactive) | 30.7 µM (inactive) | 18.8 µM (inactive)
9 | CCOC(=O)c1cc2ncccc2c2ccccc12 | > 100 µM (inactive) | > 100 µM (inactive) | > 100 µM (inactive) |  | > 100 µM (inactive) | > 100 µM (inactive) | > 100 µM (inactive) | > 100 µM (inactive) | > 100 µM (inactive) | > 100 µM (inactive) | > 100 µM (inactive) | > 100 µM (inactive) | > 100 µM (inactive) | > 100 | > 100 µM (inactive) | > 100 µM (inactive) | > 100 µM (inactive) | > 100 µM (inactive) | 
